Common to all, as to test: growth of human tumour cells (NCI), 48 h
Assay [1] relates to SK-MEL-5 melanoma.
Assay [2] has as its system SN12C renal.
In assay [3] the test system is TK-10 renal.
Assay [4] concerns SK-MEL-28 melanoma.
In assay [5] the test system is NCI-H522 lung.
Assay [6] relates to KM12 colon.
Assay [7] relates to RPMI-8226 leukemia.
Assay [8] deals with NCI-H23 lung.
For assay [9], the system named is ACHN renal.
The test system of assay [10] is HCC-2998 colon.
Assay [11] concerns SF-539 CNS.
Assay [12] concerns MCF7 breast.
Assay [13] deals with BT-549 breast.

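Five compound concentrations were applied to cells in 96-well plates for 48 hours; endpoints were derived by simple linear interpolation of the resulting dose-response curve. Abbreviation: GI50, concentration required for 50% inhibition of growth. Definition used: TGI = concentration required for complete inhibition of growth.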

On to `C=C1CC[C@@H](Br)C(C)(C)[C@]12CCC(C)(O)C(Cl)C2` (some centres not stated), for which the TGI stood at 35.7 µM in [1]; 30 µM in assay [2]; 78.4 µM in assay [3]; 40.2 µM in assay [4]; 32 µM in [5]; 33.8 µM in assay [6]. For the same compound, the TGI turned out to be 40.2 µM in assay [7], 64.4 µM in assay [8], 36.4 µM in assay [9] and 38.2 µM in assay [10].

For the compound `O=C(CCl)NC(Cc1ccc(F)cc1)C(=O)O` (configuration not stated), the TGI in assay [1], in assay [2], in assay [11], in [4], in assay [12] and in [5] was greater than 100 µM in each case. The TGI in assay [6], in assay [7], in assay [8] and in assay [10] was greater than 100 µM throughout.

For `CCOC(=O)[C@H]1Nc2c(cccc2[N+](=O)[O-])[C@H]2OCC[C@@H]12`, the TGI in assay [1], in assay [2], in assay [11], in assay [3], in assay [4] and in assay [5] was greater than 100 µM throughout. Further, the TGI in assay [6], in assay [7], in assay [8], in assay [9] and in assay [10] was greater than 100 µM throughout.

In the case of `CCCCCCCCCCCCCCCC(=O)OCC1CCCN2CCCCC12` (configuration not stated), the TGI in assay [1], in assay [2], in [11], in [3], in assay [4] and in assay [12] was greater than 100 µM throughout. Also, the TGI in [13], in [6], in assay [7], in assay [8], in [9] and in assay [10] was greater than 100 µM throughout.

On to `O=C(O)NCc1ccccc1` (tested in a mixture with another compound), for which the TGI in assay [1] was 33.4 µM; in assay [2], greater than 100 µM; in assay [11], greater than 100 µM; in assay [3], greater than 87.5 µM; in [4] it was greater than 100 µM; in assay [12], greater than 100 µM. Further, the TGI in [5] is 96.7 µM; in [13] it was greater than 92.3 µM; in [6], greater than 80.4 µM; in assay [7], 31.1 µM; in assay [8] it was greater than 100 µM; in [9], greater than 100 µM. The same compound had a TGI in assay [10] of 51.6 µM.

On to `CC1CCC(O)(C(C)(C(=O)O)c2ccccc2)CC1` (configuration not stated), for which the TGI in [1], in assay [2], in assay [3], in assay [4], in assay [5] and in assay [13] was greater than 100 µM throughout. The TGI in [6], in [8] and in [9] was greater than 100 µM throughout.

For `CC[C@H](Nc1nc(N)nc(C)c1C#N)c1nc2cccc(NCc3ccc(C(=O)NO)cc3)c2c(=O)n1-c1ccccc1`, the GI50 is 1.56 µM in assay [11]; 2.02 µM in assay [3]; 2.01 µM in [12]; 1.56 µM in assay [13]; 1.7 µM in assay [6]; 2.27 µM in assay [7]. Besides, in assay [9], the GI50 was 1.94 µM. Moreover, the TGI came to 3.63 µM in assay [11]; 6.88 µM in assay [3]; 9.06 µM in [12]; 5.2 µM in assay [13]; 3.29 µM in [6]; 9.78 µM in [7]. For the same compound, the TGI in [9] amounted to 4.67 µM.

Consider `NC(=S)Nc1cc(Cl)ccc1Cl`, for which the TGI in assay [1], in [2], in assay [11], in [3], in assay [4] and in assay [5] was greater than 100 µM in each case. Further, the TGI in assay [6], in [7], in assay [8], in [9] and in assay [10] was greater than 100 µM each time.

As to `COc1cc(N/N=C/C#N)cc(OC)c1OC`, the TGI in assay [1], in assay [2], in assay [11], in [3], in [4] and in assay [12] was greater than 10 µM in each case. Also, the TGI in [5] is 3.68 µM; in assay [6], greater than 10 µM; in assay [7], 5.68 µM; in assay [8], greater than 10 µM; in assay [9] it was greater than 10 µM; in assay [10] it was greater than 10 µM.

Turning to `C/C(=N\Oc1cc(Cl)ncn1)c1ccccn1`, the TGI in assay [1], in [2], in [11], in assay [3], in assay [4] and in [12] was greater than 100 µM throughout. Further, the TGI in [5] was 39.4 µM; in assay [13], greater than 100 µM; in assay [6] it was greater than 100 µM; in assay [7], greater than 100 µM; in [8], 92.7 µM; in [9], greater than 100 µM. This compound also displayed a TGI in assay [10] of 72.1 µM.

`Cc1cc2c(cc1C)[n+](=O)c(C#N)c(Cl)n2[O-]`: the TGI in [1] worked out at 29 µM; in [2], 28.3 µM; in assay [11] it was 28.2 µM; in assay [3], 27.9 µM; in assay [4], 42.5 µM; in assay [12] it was 27.5 µM. In addition, the TGI in assay [5] is 26.3 µM; in [13], 38.1 µM; in assay [7], 55.6 µM; in [8], 25.1 µM; in [9], 23.9 µM; in [10], 23.7 µM.

With `Nc1nncc2c1ccn2C1OC(CO)C(O)C1O` (configuration not stated), the TGI in assay [1], in assay [2], in [11], in assay [3], in assay [4] and in assay [6] was greater than 100 µM each time. Moreover, the TGI in [7], in assay [8], in [9] and in assay [10] was greater than 100 µM each time.

Source of the values: PubChem BioAssay (NCI).
